Counter-ions that a name gives are not always drawn.
Legend:
[1] = Elimination of the molecules: cumulative urinary and faecal excretion 0-72 hours; assay type: in vivo, mouse
[2] = tested on: human fibroblast cell lines; assay: Cytotoxicity, Hoechst test, human fibroblasts; settings: Homo sapiens, Fibroblast, 48 h, read-out: IC50 Fibroblast
tumour = assay: Dosimetry with regard to the tumour (MIRD programme, extrapolated to ^131I)
murine melanoma (B16 F0) = assay: Cytotoxicity, Hoechst test, B16 F0
[3] = tested on: B16 F0 murine melanoma cells; assay: Colony forming technique: chemotherapeutic and radiotherapeutic (^125I) effects in vitro; assay type: cell-based
Protocol: The colony forming technique is involved, that is to say the growth of colonies of clones starting from tumour cells (B16 F0 murine melanoma cells) inoculated at a low concentration. This method makes it possible to visualize the cytotoxic and cytostatic properties of the compounds studied. The study was carried out in three parts:
The experiment is carried out on 6-well plates where 200 cells are inoculated in 2 ml of DMEM medium. After 20 hours, the medium is withdrawn and replaced with 2 ml of medium comprising the labelled compound at the desired concentration. This study is carried out in comparison with control wells comprising DMEM medium alone. […] The plates are incubated for 8 days and then the medium is withdrawn. The wells are rinsed with PBS and methanol is added for 3 minutes. Once attached, the cells are coloured with crystal violet with a contact time of 3 minutes. Subsequently, the colonies comprising more than 50 cells are counted using a dedicated counter. The growth of the treated colonies of cells is quantified in comparison with the controls. The activity of the product is expressed by a percentage of inhibition:
100−[(number of treated colonies)/(number of control colonies)]×100

[4] = tested on: grafted B16 F0 murine melanoma tumour; assay: Biodistribution of the ^125I-labelled molecules in the melanoma-bearing mouse (autoradiography of whole-body sections); settings: for Biodistribution, radioactivity concentration in B 16, Mean: B 16 tumour
human melanoma (M4Beu) = assay: Cytotoxicity, Hoechst test, M4Beu; settings: read-out: IC50 M4Beu; M4Beu human melanoma, 48 hours incubation, Hoechst test
[5] = 1 H after i.v., 125I-labelled, dose = 2.1 MBq
[6] = 3 H after i.v., 125I-labelled, dose = 2.1 MBq
[7] = 6 H after i.v., 125I-labelled, dose = 2.1 MBq
[8] = 24 H after i.v., 125I-labelled, dose = 2.1 MBq
[9] = 72 H after i.v., 125I-labelled, dose = 2.1 MBq

Faecal elimination 0-72 hours (Faeces) ([1]; cumulative excretion 0-72 hours, faeces, mice in metabolic cages): 61% | Urinary and faecal elimination 0-72 hours (Total) ([1]; cumulative excretion 0-72 hours, urine + faeces): 66.8% | Urinary elimination 0-72 hours (Urine) ([1]; cumulative excretion 0-72 hours, urine, mice in metabolic cages): 5.8% | elimination route (in words) ([1]; urinary versus faecal, 0-72 hours): faecal route predominates | Effective period (tumour; extrapolated to 131I labelling): 30.0 h | Biological period (tumour; from biodistribution data): 35.5 hours | Biodistribution, radioactivity concentration in B 16, Mean [4, 5]: 20.96 % ID/g | Biodistribution, radioactivity concentration in B 16, Mean [4, 6]: 23.65 % ID/g | Biodistribution, radioactivity concentration in B 16, Mean [4, 7]: 27.70 % ID/g | Biodistribution, radioactivity concentration in B 16, Mean [4, 8]: 11.47 % ID/g | Biodistribution, radioactivity concentration in B 16, Mean [4, 9]: 6.26 % ID/g | Biodistribution, radioactivity concentration in GB, Mean ([4]; GB, 3 H after i.v., 125I-labelled, dose = 2.1 MBq): 107.29 % ID/g | Biodistribution, radioactivity concentration in Ic, Mean [4, 5]: 56.33 % ID/g | Biodistribution, radioactivity concentration in Ic, Mean [4, 6]: 52.72 % ID/g | Biodistribution, radioactivity concentration in Ic, Mean [4, 7]: 52.58 % ID/g | Biodistribution, radioactivity concentration in Ic, Mean [4, 8]: 2.30 % ID/g | Biodistribution, radioactivity concentration in Sc, Mean [4, 5]: 11.25 % ID/g | Biodistribution, radioactivity concentration in Sc, Mean [4, 6]: 14.52 % ID/g | Biodistribution, radioactivity concentration in Sc, Mean [4, 7]: 16.09 % ID/g | Biodistribution, radioactivity concentration in Sc, Mean [4, 8]: 2.95 % ID/g | tumour concentration, times higher than with BZA ([4]; at 72 hours (FIG. 1B)): 8 times | Biodistribution, radioactivity concentration in blood, Mean [4, 5]: 3.92 % ID/g | Biodistribution, radioactivity concentration in blood, Mean [4, 6]: 1.39 % ID/g | Biodistribution, radioactivity concentration in brain, Mean [4, 5]: 1.79 % ID/g | Biodistribution, radioactivity concentration in brain, Mean [4, 6]: 0.44 % ID/g | tumour concentration, % of the injected dose per gram of tumour ([4]; from the first hour): 21 % ID/g | Biodistribution, radioactivity concentration in kidney, Mean [4, 5]: 9.45 % ID/g | Biodistribution, radioactivity concentration in kidney, Mean [4, 6]: 3.42 % ID/g | Biodistribution, radioactivity concentration in kidney, Mean [4, 7]: 1.55 % ID/g | Biodistribution, radioactivity concentration in liver, Mean [4, 5]: 10.94 % ID/g | Biodistribution, radioactivity concentration in liver, Mean [4, 6]: 5.83 % ID/g | Biodistribution, radioactivity concentration in liver, Mean [4, 7]: 4.04 % ID/g | Biodistribution, radioactivity concentration in liver, Mean [4, 8]: 1.44 % ID/g | Biodistribution, radioactivity concentration in lungs, Mean [4, 5]: 8.77 % ID/g | Biodistribution, radioactivity concentration in lungs, Mean [4, 6]: 2.84 % ID/g | Biodistribution, radioactivity concentration in lungs, Mean [4, 7]: 1.40 % ID/g | Biodistribution, radioactivity concentration in muscle, Mean [4, 5]: 1.27 % ID/g | Biodistribution, radioactivity concentration in muscle, Mean [4, 6]: 0.45 % ID/g | Biodistribution, radioactivity concentration in muscle, Mean [4, 7]: 0.42 % ID/g | Biodistribution, radioactivity concentration in pancreas, Mean [4, 5]: 6.63 % ID/g | Biodistribution, radioactivity concentration in pancreas, Mean [4, 6]: 1.53 % ID/g | Biodistribution, radioactivity concentration in spleen, Mean [4, 5]: 14.02 % ID/g | Biodistribution, radioactivity concentration in spleen, Mean [4, 6]: 13.84 % ID/g | Biodistribution, radioactivity concentration in spleen, Mean [4, 7]: 18.88 % ID/g | Biodistribution, radioactivity concentration in thyroid, Mean [4, 6]: 8.63 % ID/g | Biodistribution, radioactivity concentration in thyroid, Mean [4, 7]: 54.71 % ID/g | Biodistribution, radioactivity concentration in thyroid, Mean [4, 8]: 214.42 % ID/g | Biodistribution, radioactivity concentration in thyroid, Mean [4, 9]: 12.74 % ID/g | Biodistribution, radioactivity concentration in uvea, Mean [4, 5]: 14.19 % ID/g | Biodistribution, radioactivity concentration in uvea, Mean [4, 6]: 17.49 % ID/g | Biodistribution, radioactivity concentration in uvea, Mean [4, 7]: 14.74 % ID/g | Biodistribution, radioactivity concentration in uvea, Mean [4, 8]: 11.64 % ID/g | Biodistribution, radioactivity concentration in uvea, Mean [4, 9]: 11.19 % ID/g
Structure (SMILES): CCN(CC)CCNC(=O)c1cccc2nc3cc(I)ccc3nc12 [compound 151, N-(2-diethylaminoethyl)-7-iodophenazine-1-carboxamide dihydrochloride]
IC50 [2]: 2.7 µM | IC50 (murine melanoma (B16 F0); read-out: IC50 B16, B16 F0 murine melanoma, 48 hours incubation, Hoechst test): 3.6 µM | cytotoxic activity compared with DACA (in words) (murine melanoma (B16 F0); various cell lines studied (B16 F0, M4Beu, fibroblasts)): activities similar to that of DACA | inhibition at 2 µM ([3]; Mus musculus, B16F0, cold compound, 2 μM, colony forming, 48 hours contact, read-out: % of inhibition (Chemotherapeutic effects alone)): 21% | inhibition at 4 µM ([3]; Mus musculus, B16F0, cold compound, 4 μM, colony forming, 48 hours contact, read-out: % of inhibition (Chemotherapeutic effects alone)): 74% | inhibition at 6 µM ([3]; Mus musculus, B16F0, cold compound, 6 μM, colony forming, 48 hours contact, read-out: % of inhibition (Chemotherapeutic effects alone)): 87% | inhibition at 8 µM ([3]; Mus musculus, B16F0, cold compound, 8 μM, colony forming, 48 hours contact, read-out: % of inhibition (Chemotherapeutic effects alone)): 97% | inhibition at 10 µM ([3]; Mus musculus, B16F0, cold compound, 10 μM, colony forming, 48 hours contact, read-out: % of inhibition (Chemotherapeutic effects alone)): 100% | Cumulative effect (% inhib) (Radiotherapeutic and chemotherapeutic effects) ([3]; cold compound 151 at 2 μM with 0 activity of [125I]-151): 19% | IC50 (human melanoma (M4Beu)): 3.6 µM

From US20100061928A1, “LABELLED ANALOGUES OF HALOBENZAMIDES AS RADIOPHARMACEUTICALS” (Institut National De La Sante et De La Recherche Medicale …, priority 2006, published 2010)
